Key:
Liver [1] = assay: Effect on doxorubicin metabolism in human liver cytosolic fractions assessed as inhibition of formation of doxorubicinol at 30 uM; type: ADME, subcellular; conditions: cytosol
MDA-MB-435 [2] = assay: Cytotoxicity against human MDA-MB-435 cells at 10 uM after 96 hrs by MTT assay; type: cell-based; conditions: mda-mb-435, 96 h
MDA-MB-435 [3] = assay: Effect on drug efflux in human MDA-MB-435 cells at 100 nM upto 120 mins; type: ADME, cell-based; conditions: mda-mb-435, 2 h, 0.1 µM
[4] = Effect on drug efflux in human NCI-ADR-RES cells at 100 nM upto 120 mins; type: ADME, cell-based; conditions: 2 h, 0.1 µM
MDA-MB-435 [5] = assay: Drug uptake in human MDA-MB-435 cells in presence of 100 uM MK-571; type: ADME, cell-based
[6] = Inhibition of drug efflux in human NCI-ADR-RES cells at 100 nM after 120 mins in presence of 100 uM verapamil; type: ADME, cell-based; conditions: 2 h, 0.1 µM
[7] = Increase in drug uptake in human NCI-ADR-RES cells in presence of 100 uM verapamil; type: ADME, cell-based
MDA-MB-435 [8] = assay: Increase in drug uptake in human MDA-MB-435 cells in presence of 100 uM verapamil; type: ADME, cell-based
[9] = Effect on drug uptake in human NCI-ADR-RES cells in presence of 10 uM verapamil; type: ADME, cell-based
MDA-MB-435 [10] = assay: Effect on drug uptake in human MDA-MB-435 cells in presence of 10 uM verapamil; type: ADME, cell-based
Liver microsomes = assay: Metabolic stability in human liver microsomal fraction assessed as formation of doxorubicin aglycone after 60 mins; type: ADME, Microsome; conditions: 1 h
Liver [11] = assay: Metabolic stability in human liver cytosolic fraction assessed as formation of doxorubicinol after 60 mins; type: ADME, subcellular; conditions: cytosol, 1 h
Liver [12] = assay: Effect on doxorubicin metabolism in human liver cytosolic fractions assessed as inhibition of formation of doxorubicinol; type: ADME, subcellular, Cytosol
[13] = Decrease in [14C]DOX accumulation in human NCI-ADR-RES cells at 30 uM after 120 mins; type: ADME, cell-based; design: scale not given: the % may be the effect or the level left; conditions: 2 h
[14] = Effect on [14C]DOX efflux in human NCI-ADR-RES cells; type: ADME, cell-based

## O=C(/C=C/c1ccc(I)cc1)c1c(O)cc(O)cc1O
Liver [1]
  Activity: Active
MDA-MB-435 [2]
  Activity: Toxic

## COc1cc(O)c2c(c1)O/C(=C\c1ccc(Cl)cc1)C2=O
MDA-MB-435 [2]
  Activity: Toxic

## C[C@@H]1O[C@@H](O[C@H]2C[C@](O)(C(=O)CO)Cc3c(O)c4c(c(O)c32)C(=O)c2c(O[14CH3])cccc2C4=O)C[C@H](N)[C@@H]1O
MDA-MB-435 [3]
  Activity: 23%
[4]
  Activity: 66%
MDA-MB-435 [5]
  Activity: Not Active
[6]
  Activity: Active
[7]
  Fold change: 7.6
MDA-MB-435 [8]
  Fold change: 3.7
[9]
  Activity: Not Active
MDA-MB-435 [10]
  Activity: Not Active

## COc1cc(O)c2c(c1)O/C(=C\c1ccccc1)C2=O
Liver [1]
  Activity: Active
MDA-MB-435 [2]
  Activity: Toxic

## COc1cc(OC)c2c(c1)O/C(=C\c1cc(OC)c(OC)cc1OC)C2=O
MDA-MB-435 [2]
  Activity: Toxic

## CCc1ccc(/C=C2\Oc3cc(OC)cc(O)c3C2=O)cc1
MDA-MB-435 [2]
  Activity: Toxic

## COc1cccc2c1C(=O)c1c(O)c3c(c(O)c1C2=O)C[C@@](O)(C(=O)CO)C[C@@H]3O[C@H]1C[C@H](N)[C@H](O)[C@H](C)O1 [DOXORUBICIN]
Liver microsomes
  Activity: 4.63%
Liver [11]
  Activity: 15.1%

## O=C1C[C@@H](c2ccc(O)c(O)c2)Oc2cc(O)cc(O)c21 [ERIODICTYOL]
MDA-MB-435 [2]
  Activity: Toxic

## O=c1c(O)c(-c2ccc(O)c(O)c2)oc2cc(O)ccc12 [FISETIN]
MDA-MB-435 [2]
  Activity: Toxic

## O=c1c(O)c(-c2ccc(O)c(O)c2)oc2cc(O)cc(O)c12 [QUERCETIN]
Liver [12]
  IC50: 16.2 µM
MDA-MB-435 [2]
  Activity: Toxic
[13]
  Activity: 51.3%
[14]
  Activity: Not Active

— ChEMBL document CHEMBL1142305, “The effect of flavonoid derivatives on doxorubicin transport and metabolism” (Bioorg Med Chem, 2008)
